In patent US20230295115A1, “SUBSTITUTED ISOQUINOLINYLMETHYL AMIDES, ANALOGUES THEREOF, AND METHODS USING SAME” (priority 2020, published 2023):

What follows are molecules tested on HBV rcDNA (assay: HepDE19 assay with bDNA quantitation of HBV rcDNA). Details: HepDE19 cells, 7 day incubation, rcDNA measured by Quantigene 2.0 bDNA assay, top concentration 25 μM; read-out: DE-19bDNA EC50.
Assay type: cell-based, hepatitis B virus (HBV)
Procedure: HepDE19 assay with bDNA quantitation of HBV rcDNA:
HepDE19 (50,000 cells/well) were plated in 96-well collagen-coated tissue-culture treated microtiter plates in DMEM/F12 medium supplemented with 10% fetal bovine serum, 1% penicillin-streptomycin and 1 μg/mL tetracycline and incubated in a humidified incubator at 37° C. and 5% CO2 overnight. Next day, the cells were switched to fresh medium without tetracycline and incubated for 4 hours at 37° C. and 5% CO2. […] The final DMSO concentration in the assay was 0.5%. The plates were incubated for 7 days in a humidified incubator at 37° C. and 5% CO2. Following a 7 day-incubation, the level of rcDNA present in the inhibitor-treated wells was measured using a Quantigene 2.0 bDNA assay kit (Affymetrix, Santa Clara, CA) with HBV specific custom probe set and manufacturers instructions. Concurrently, the effect of compounds on cell viability was assessed using replicate plates, plated at a density of 5,000 cells/well and incubated for 4 days, to determine the ATP content as a measure of cell viability using the cell-titer glo reagent (CTG; Promega Corporation, Madison, WI) as per manufacturer's instructions.

Compared with CC(c1c[nH]c(=O)c2c(F)c(F)ccc12)N(C)C(=O)c1cc2c([nH]1)CCC2 (single isomer, unassigned) [Compound 58, N-(1-(7,8-Difluoro-1-oxo-1,2-dihydroisoquinolin-4-yl)ethyl)-N-methyl-1,4,5,6-tetrahydrocyclopenta[b]pyrrole-2-carboxamide], CC(c1c[nH]c(=O)c2c(F)c(F)ccc12)N(C)C(=O)c1cc2c([nH]1)CCC(F)(F)C2 (single isomer, unassigned) [Compound 90, N-(1-(7,8-Difluoro-1-oxo-1,2-dihydroisoquinolin-4-yl)ethyl)-5,5-difluoro-N-methyl-4,5,6,7-tetrahydro-1H-indole-2-carboxamide] is 4.9-fold lower in EC50: 1800 nM for the first, 370 nM for the second.

Compared with CC(c1cn(C)c(=O)c2cc(F)c(F)cc12)N(C)C(=O)c1ccc(C(F)(F)F)c(F)c1 (single isomer, unassigned) [Compound 166, N-(1-(6,7-difluoro-2-methyl-1-oxo-1,2-dihydroisoquinolin-4-yl)ethyl)-3-fluoro-N-methyl-4-(trifluoromethyl)benzamide], CC(c1c[nH]c(=O)c2cc(F)c(F)cc12)N(C)C(=O)c1ccc(C(F)(F)F)cc1 (single isomer, unassigned) [Compound 130, N-(1-(6,7-Difluoro-1-oxo-1,2-dihydroisoquinolin-4-yl)ethyl)-N-methyl-4-(trifluoromethyl) benzamide] is 170-fold lower in EC50: 3320 nM for the first, 20 nM for the second.

Compared with CC(c1c[nH]c(=O)c2cc(F)c(F)cc12)N(CCCO)C(=O)c1cc2ccccc2[nH]1 (single isomer, unassigned) [Compound 27, N-(1-(6,7-Difluoro-1-oxo-1,2-dihydroisoquinolin-4-yl)ethyl)-N-(3-hydroxypropyl)-1H-indole-2-carboxamide], CC(c1c[nH]c(=O)c2cc(F)c(F)cc12)N(C)C(=O)c1nc2ccccc2[nH]1 (single isomer, unassigned) [Compound 24, N-(1-(6,7-Difluoro-1-oxo-1,2-dihydroisoquinolin-4-yl)ethyl)-N-methyl-1H-benzo[d]imidazole-2-carboxamide] is 3.8-fold lower in EC50: 2900 nM for the first, 760 nM for the second.

First: CC(c1c[nH]c(=O)c2cc(F)c(F)cc12)N(C)C(=O)c1ccc2ccn(C)c2c1 (single isomer, unassigned) [Compound 141, N-(1-(6,7-Difluoro-1-oxo-1,2-dihydroisoquinolin-4-yl)ethyl)-N,1-dimethyl-1H-indole-6-carboxamide]
Second: CC(c1c[nH]c(=O)c2cc(F)c(F)cc12)N(C)C(=O)c1ccc(F)c(C(F)F)c1 (single isomer, unassigned) [Compound 133, N-(1-(6,7-Difluoro-1-oxo-1,2-dihydroisoquinolin-4-yl)ethyl)-3-(difluoromethyl)-4-fluoro-N-methylbenzamide]
The EC50 of the first is higher: > 25000 nM for the first, 14600 nM for the second. The second is the more potent here.

First: CC(c1c[nH]c(=O)c2cc(F)c(F)cc12)N(C)C(=O)c1cc2c([nH]1)CCC2 (single isomer, unassigned) [Compound 47, N-(1-(6,7-Difluoro-1-oxo-1,2-dihydroisoquinolin-4-yl)ethyl)-N-methyl-1,4,5,6-tetrahydro cyclopenta[b]pyrrole-2-carboxamide]
Second: CC(c1c[nH]c(=O)c2cc(F)c(F)cc12)N(C)C(=O)c1ccc(F)c(C(F)F)c1 (single isomer, unassigned) [Compound 134, N-(1-(6,7-Difluoro-1-oxo-1,2-dihydroisoquinolin-4-yl)ethyl)-3-(difluoromethyl)-4-fluoro-N-methylbenzamide]
The EC50 of the first is higher: ≥ 25000 nM for the first, 60 nM for the second. The second is the more potent here.

First: CC(c1cn(C)c(=O)c2cc(F)c(F)cc12)N(C)C(=O)[C@@H]1Cc2ccccc2N1 (stereo partly drawn) [Compound 183, (2S)-N-(1-(6,7-difluoro-2-methyl-1-oxo-1,2-dihydroisoquinolin-4-yl)ethyl)-N-methylindoline-2-carboxamide]
Second: CC(c1c[nH]c(=O)c2cc(F)c(F)cc12)N(C)C(=O)C1Nc2ccccc2C1(C)C (centres unmarked) [Compound 113, N-(1-(6,7-Difluoro-1-oxo-1,2-dihydroisoquinolin-4-yl)ethyl)-N,3,3-trimethylindoline-2-carboxamide]
The EC50 of the first is lower: 70 nM for the first, ≥ 25000 nM for the second. The first is the more potent here.

Going from CC(c1c[nH]c(=O)c2c(F)c(F)ccc12)N(C)C(=O)C1Cc2cc(F)ccc2N1 (centres unmarked) [Compound 75, N-(1-(7,8-Difluoro-1-oxo-1,2-dihydroisoquinolin-4-yl)ethyl)-5-fluoro-N-methylindoline-2-carboxamide] to CC(c1c[nH]c(=O)c2c(F)c(F)ccc12)N(C)C(=O)C1Nc2ccccc2C1(C)C (centres unmarked) [Compound 107, N-(1-(7,8-Difluoro-1-oxo-1,2-dihydroisoquinolin-4-yl)ethyl)-N,3,3-trimethylindoline-2-carboxamide], the EC50 rises from 830 nM to 16000 nM (19-fold).

Compared with COc1ncc(C(C)N(C)C(=O)c2cc3cc(F)c(F)cc3[nH]2)c2cc(F)c(F)cc12 (single isomer, unassigned) [Compound 170, N-(1-(6,7-Difluoro-1-methoxyisoquinolin-4-yl)ethyl)-5,6-difluoro-N-methyl-1H-indole-2-carboxamide], CC(c1c[nH]c(=O)c2cc(F)c(F)cc12)N(CCCO)C(=O)c1cc2ccccc2[nH]1 (single isomer, unassigned) [Compound 28, N-(1-(6,7-Difluoro-1-oxo-1,2-dihydroisoquinolin-4-yl)ethyl)-N-(3-hydroxypropyl)-1H-indole-2-carboxamide] is 130-fold lower in EC50: 5040 nM for the first, 40 nM for the second.

Same assay, conditions: Hepatitis B virus, HepDE19, 168 h, HepDE19 cells, 7 day incubation, rcDNA measured by Quantigene 2.0 bDNA assay, top concentration 25 μM; read-out: DE-19bDNA EC50

Going from CC(c1c[nH]c(=O)c2cc(F)c(F)cc12)N(C)C(=O)C(=O)Nc1ccc(F)c(Cl)c1 (racemic) [Compound 144, N1-(3-Chloro-4-fluorophenyl)-N2-(1-(6,7-difluoro-1-oxo-1,2-dihydroisoquinolin-4-yl)ethyl)-N2-methyloxalamide] to CC(c1c[nH]c(=O)c2cc(F)c(F)cc12)N(C)C(=O)c1[nH]c2ccccc2c1Cl (racemic) [Compound 60, 3-Chloro-N-(1-(6,7-difluoro-1-oxo-1,2-dihydroisoquinolin-4-yl)ethyl)-N-methyl-1H-indole-2-carboxamide], the EC50 falls from 1440 nM to 800 nM (1.8-fold).

First: C[C@H](c1c[nH]c(=O)c2ccccc12)N(C)C(=O)c1cc2ccccc2[nH]1 [Compound 155, (R)-N-Methyl-N-(1-(1-oxo-1,2-dihydroisoquinolin-4-yl)ethyl)-1H-indole-2-carboxamide]
Second: C[C@H](c1c[nH]c(=O)c2ccccc12)N(C)C(=O)c1ccc(F)c(Cl)c1 [Compound 149, (R)-3-Chloro-4-fluoro-N-methyl-N-(1-(1-oxo-1,2-dihydroisoquinolin-4-yl)ethyl)benzamide]
The EC50 of the first is 4-fold lower: 170 nM for the first, 680 nM for the second.

Compared with CC(c1c[nH]c(=O)c2c(F)c(F)ccc12)N(C)C(=O)C1Nc2ccccc2C1(C)C (centres unmarked) [Compound 104, N-(1-(7,8-Difluoro-1-oxo-1,2-dihydroisoquinolin-4-yl)ethyl)-N,3,3-trimethylindoline-2-carboxamide], C[C@H](c1c[nH]c(=O)c2ccccc12)N(C)C(=O)c1ccc(Cl)c(F)c1 [Compound 148, (R)-4-Chloro-3-fluoro-N-methyl-N-(1-(1-oxo-1,2-dihydroisoquinolin-4-yl)ethyl)benzamide] is lower in EC50: ≥ 25000 nM for the first, 270 nM for the second.

Same assay, conditions: read-out: DE-19bDNA EC50; HepDE19 cells, 7 day incubation, rcDNA measured by Quantigene 2.0 bDNA assay, top concentration 25 μM

For CC(c1c[nH]c(=O)c2cc(F)c(F)cc12)N(C)C(=O)c1ccccc1 (single isomer, unassigned) [Compound 127, N-(1-(6,7-Difluoro-1-oxo-1,2-dihydroisoquinolin-4-yl)ethyl)-N-methylbenzamide], the EC50 was 3530 nM.
